Values quoted from earlier work as cited in US7049120B2, “Regulation of human mrp5-like protein” (Bayer HealthCare AG, priority 2001, dated 2006).

What was measured:
[1] = target: T1, MRP5 (Homo sapiens, UniProt O15440); design: host or cells: polarized Madin-Darby canine kidney II (MDCK II) cells, transfected; conditions: polarized MDCK II cells overexpressing human MRP5; Wijnholds et al., 2000
[2] = target: T1, MRP5; design: host or cells: polarized Madin-Darby canine kidney II (MDCK II) cells, transfected; conditions: MDCK II cells transfected with human MRP5; Wijnholds et al., 2000
[3] = target: T1, MRP5; design: host or cells: V79 hamster lung fibroblasts, stably expressing; conditions: MRP5 stably expressed in V79 hamster lung fibroblasts; Jedlitschsky et al., 2000

T1 sequence (O15440 whole entry): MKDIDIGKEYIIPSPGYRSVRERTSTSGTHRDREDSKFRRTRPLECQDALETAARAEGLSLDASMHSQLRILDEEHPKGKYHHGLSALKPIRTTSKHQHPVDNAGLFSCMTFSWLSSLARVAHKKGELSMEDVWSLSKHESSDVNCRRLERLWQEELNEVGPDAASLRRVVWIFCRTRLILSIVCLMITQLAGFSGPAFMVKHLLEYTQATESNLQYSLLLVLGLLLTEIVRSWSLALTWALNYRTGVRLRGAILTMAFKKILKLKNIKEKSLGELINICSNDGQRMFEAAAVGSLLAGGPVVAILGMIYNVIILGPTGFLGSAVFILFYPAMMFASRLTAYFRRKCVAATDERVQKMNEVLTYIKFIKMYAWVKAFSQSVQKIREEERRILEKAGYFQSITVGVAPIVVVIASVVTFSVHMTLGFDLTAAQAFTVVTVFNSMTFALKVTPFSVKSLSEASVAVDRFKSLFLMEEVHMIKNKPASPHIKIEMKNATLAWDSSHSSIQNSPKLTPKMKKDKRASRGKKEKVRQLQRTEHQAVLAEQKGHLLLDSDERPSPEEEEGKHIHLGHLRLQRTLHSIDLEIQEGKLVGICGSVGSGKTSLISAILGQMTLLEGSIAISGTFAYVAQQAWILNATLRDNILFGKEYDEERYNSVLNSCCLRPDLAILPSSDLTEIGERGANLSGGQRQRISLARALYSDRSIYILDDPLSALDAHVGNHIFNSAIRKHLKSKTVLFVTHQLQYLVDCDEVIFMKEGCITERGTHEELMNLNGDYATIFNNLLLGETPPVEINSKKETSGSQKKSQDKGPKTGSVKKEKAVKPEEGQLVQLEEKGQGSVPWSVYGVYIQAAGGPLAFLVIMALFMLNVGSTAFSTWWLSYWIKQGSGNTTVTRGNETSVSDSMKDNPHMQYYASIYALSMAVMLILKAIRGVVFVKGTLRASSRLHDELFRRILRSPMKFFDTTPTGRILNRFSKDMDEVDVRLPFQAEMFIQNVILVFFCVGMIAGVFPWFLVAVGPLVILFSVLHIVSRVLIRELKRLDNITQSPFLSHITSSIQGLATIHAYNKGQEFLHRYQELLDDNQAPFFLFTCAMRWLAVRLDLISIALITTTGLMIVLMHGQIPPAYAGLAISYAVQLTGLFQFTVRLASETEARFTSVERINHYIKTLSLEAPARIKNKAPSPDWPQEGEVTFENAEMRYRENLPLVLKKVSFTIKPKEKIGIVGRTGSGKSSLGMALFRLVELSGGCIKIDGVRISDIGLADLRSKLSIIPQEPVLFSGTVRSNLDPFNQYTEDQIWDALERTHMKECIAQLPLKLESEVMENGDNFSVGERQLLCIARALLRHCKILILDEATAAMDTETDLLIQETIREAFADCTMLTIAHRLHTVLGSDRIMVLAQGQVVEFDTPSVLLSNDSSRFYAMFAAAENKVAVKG

Row | SMILES | resistance of MRP5-overexpressing cells to the drug [1] | inhibition of MRP5-mediated transport of cyclic nucleotides such as cGMP [3] | other results
1 | Nc1ncnc2c1ncn2CCOCP(=O)(O)O [PMEA, 9-(2-phosphonylmethoxyethyl)-adenine] | – | – | transport of the drug by MRP5-transfected cells [2]: transport
2 | CCCc1nn(C)c2c(=O)[nH]c(-c3cc(S(=O)(=O)N4CCN(C)CC4)ccc3OCC)nc12 [Sildenafil] | – | inhibited | –
3 | COc1cc2c(cc1OC)-c1c/c(=N\c3c(C)cc(C)cc3C)n(C)c(=O)n1CC2 [Trequinsin] | – | inhibited | –

Now from value to molecule, other results behind:

Row | resistance of MRP5-overexpressing cells to the drug [1] | inhibition of MRP5-mediated transport of cyclic nucleotides such as cGMP [3] | SMILES | other results
4 | resistant | – | Sc1ncnc2nc[nH]c12 [6-mercaptopurine] | –
5 | – | inhibited | CCCOc1ccccc1-c1nc2nn[nH]c2c(=O)[nH]1 [Zaprinast] | –
6 | resistant | – | Nc1nc2nc[nH]c2c(=S)[nH]1 [thioguanine] | –
